Values quoted from earlier work as cited in US20030114497A1 (priority 2001, published 2003).

Columns and labels:
calcium channel = conditions: see WO 95/05822
[1] = test system: smooth muscle cell migration; conditions: see WO 95/25722

Compound: CCOC(=O)C1=C(COCCN)NC(C)=C(C(=O)OC)[C@H]1c1ccccc1Cl (single isomer, unassigned) [R(+) isomer]
- calcium channel blocking activity (calcium channel): little or no calcium channel blocking activity
- inhibition of smooth muscle cell migration [1]: potent inhibitor
